Test results taken from the NIST ThermoML archive (doi:10.1021/acs.jced.7b00904).
± gives the expanded uncertainty stated by the source.

Assay: wn = mass fraction of the nth substance listed
Details: 295 K; for surface tension liquid-gas: Wilhelmi plate; for mass density / viscosity: 101.3 kPa, Liquid; for mass density: Buoyancy - hydrostatic balance; for viscosity: Concentric cylinders viscometry

N#C[S-].[K+] [potassium thiocyanate] + O
Details | mass density [kg/m3] | surface tension liquid-gas [mN/m] | viscosity [mPa·s]
w1 = 0.03 | 1013 ± 6 | 67.25 ± 1.1 | 0.834 ± 0.07
w1 = 0.05 | 1022 ± 6 | 61.98 ± 5.4 | 0.845 ± 0.07
w1 = 0.07 | 1031 ± 6 | 58.59 ± 13 | 0.825 ± 0.07
w1 = 0.1 | 1047 ± 6 | 57.2 ± 13 | 0.843 ± 0.07
w1 = 0.2 | 1100 ± 6 | 57.79 ± 4.6 | 0.881 ± 0.07
w1 = 0.3 | 1157 ± 6 | – | 0.916 ± 0.07
w1 = 0.4 | 1218 ± 6 | 55.45 ± 5.8 | 1.101 ± 0.07
w1 = 0.5 | 1283 ± 6 | 56.47 ± 5.4 | 1.321 ± 0.071
w1 = 0.6 | 1353 ± 6 | 62.93 ± 3.9 | 1.979 ± 0.071
w1 = 0.65 | 1392 ± 6 | 73.26 ± 1.2 | 2.588 ± 0.073
w1 = 0.68 | 1414 ± 6 | 74.62 ± 1.2 | 3.125 ± 0.074
